From patent US20230123334A1, “AMINO LIPID COMPOUND, PREPARATION METHOD THEREFOR, AND APPLICATION THEREOF” (SHENZHEN SHENXIN BIOTECHNOLOGY CO., LTD., priority 2020, published 2023) come the findings set out here.

In this assay the test system is HEK293 cells. Put plainly: Preliminary screening as mRNA vectors, EGFP mRNA transfection of HEK293 cells. In kind it is cell-based. To be noted: EGFP mRNA 50 ng per well, 96-well plates; percentage of GFP fluorescent cells relative to total number of cells (Hoechst). In outline: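 Each well of HEK293 cells received 50 ng of EGFP mRNA. Efficiency was expressed as percent GFP-expressing cells over Hoechst-defined total cell number.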

Turning to `CCCCCCCCCCSc1nc(NCCCCCCCCC)nc(NCCN2CCCCC2)n1` [Compound D4S10N9], the “Absolute mRNA transfection efficiency in HEK293 cells” value (“Absolute mRNA transfection efficiency” for short) was determined as 0.2%.
Turning to `CCCCCCCCCCCNc1nc(NCCN2CCCCC2)nc(SCCCCCCCCCC)n1` [Compound D4S10N11], the “Absolute mRNA transfection efficiency” value is 0.8%.
On to `CCCCCCCCCCCCNc1nc(NCCN2CCCCC2)nc(SCCCCCCCCCC)n1` [Compound D4S10N12], for which the “Absolute mRNA transfection efficiency” value is recorded as 1.0%.
The value for `CCCCCCCCCCCCCNc1nc(NCCN2CCCCC2)nc(SCCCCCCCCCC)n1` [Compound D4S10N13] was 0.3%.
With `CCCCCCCCCCCCCCCNc1nc(NCCN2CCCCC2)nc(SCCCCCCCCCC)n1` [Compound D4S10N15], the “Absolute mRNA transfection efficiency” value came to 1.5%.
Consider `CCCCCCCCCCCCCCCCNc1nc(NCCN2CCCCC2)nc(SCCCCCCCCCC)n1` [Compound D4S10N16], for which the “Absolute mRNA transfection efficiency” value was determined as 14.7%.
For `CCCCCCCCCCCCCCCCCCNc1nc(NCCN2CCCCC2)nc(SCCCCCCCCCC)n1` [Compound D4S10N18] the value was 37.7%.
The value for `CCCCCCCCCCCSc1nc(NCCCCCC)nc(NCCN2CCCCC2)n1` [Compound D4S11N6] was 2.7%; that for `CCCCCCCCCCCSc1nc(NCCCCCCC)nc(NCCN2CCCCC2)n1` [Compound D4S11N7] was 2.3%.
Consider `CCCCCCCCCCCSc1nc(NCCCCCCCC)nc(NCCN2CCCCC2)n1` [Compound D4S11N8], for which the “Absolute mRNA transfection efficiency” value is on record as 4.3%.
For `CCCCCCCCCCCSc1nc(NCCCCCCCCC)nc(NCCN2CCCCC2)n1` [Compound D4S11N9] the value was 4.2%; for `CCCCCCCCCCCNc1nc(NCCN2CCCCC2)nc(SCCCCCCCCCCC)n1` [Compound D4S11N11], 2.0%.
For `CCCCCCCCCCCCNc1nc(NCCN2CCCCC2)nc(SCCCCCCCCCCC)n1` [Compound D4S11N12] the value was 8.9%; for `CCCCCCCCCCCCCNc1nc(NCCN2CCCCC2)nc(SCCCCCCCCCCC)n1` [Compound D4S11N13], 15.4%; for `CCCCCCCCCCCCCCCNc1nc(NCCN2CCCCC2)nc(SCCCCCCCCCCC)n1` [Compound D4S11N15], 17.0%.
With `CCCCCCCCCCCCCCCCNc1nc(NCCN2CCCCC2)nc(SCCCCCCCCCCC)n1` [Compound D4S11N16], the “Absolute mRNA transfection efficiency” value stood at 12.3%.
The value for `CCCCCCCCCCCCCCCCCCNc1nc(NCCN2CCCCC2)nc(SCCCCCCCCCCC)n1` [Compound D4S11N18] was 8.8%; that for `CCCCCCCCCCCCSc1nc(NCCCCCC)nc(NCCN2CCCCC2)n1` [Compound D4S12N6] was 0.9%.
The value for `CCCCCCCCCCCCSc1nc(NCCCCCCC)nc(NCCN2CCCCC2)n1` [Compound D4S12N7] was 0.5%; that for `CCCCCCCCCCCCSc1nc(NCCCCCCCC)nc(NCCN2CCCCC2)n1` [Compound D4S12N8] was 1.6%.
For `CCCCCCCCCCCCSc1nc(NCCCCCCCCC)nc(NCCN2CCCCC2)n1` [Compound D4S12N9], the “Absolute mRNA transfection efficiency” value was determined as 0.7%.
For `CCCCCCCCCCCCSc1nc(NCCCCCCCCCCC)nc(NCCN2CCCCC2)n1` [Compound D4S12N11] the value was 3.7%; for `CCCCCCCCCCCCNc1nc(NCCN2CCCCC2)nc(SCCCCCCCCCCCC)n1` [Compound D4S12N12], 2.1%.
For `CCCCCCCCCCCCCNc1nc(NCCN2CCCCC2)nc(SCCCCCCCCCCCC)n1` [Compound D4S12N13], the “Absolute mRNA transfection efficiency” value is on record as 1.3%.
Regarding `CCCCCCCCCCCCCCCNc1nc(NCCN2CCCCC2)nc(SCCCCCCCCCCCC)n1` [Compound D4S12N15], the “Absolute mRNA transfection efficiency” value stood at 2.0%.
